Columns and labels:
rat [1] = details: Subchronic oral toxicity in rodents, wistar, Feed, dose end: 90 day, group: systemic
rabbit [2] = details: Prenatal developmental toxicity study, new zealand white, Oral, Gavage/Intubation, dose end: 20 GD
rat [3] = details: Prenatal developmental toxicity study, wistar, Oral, Gavage/Intubation, dose end: 16 GD
rabbit [4] = details: Subchronic inhalation toxicity, new zealand white, Whole-Body, dose end: 14 day, group: systemic, systemic / pathology microscopic / brain / necrosis + systemic / pathology microscopic / brain / vacuolization + systemic / pathology …
mouse [5] = details: Carcinogenicity; cd1; Inhalation; Whole-Body; dose end: 18 month; group: systemic; systemic / in life observation / body weight / body weight gain + systemic / in life observation / mortality / mortality + systemic / …
rat [6] = details: Multigenerational reproductive toxicity study, sprague dawley, Inhalation, Whole-Body, dose end: 2 generation
dog [7] = details: Chronic toxicity; beagle; Inhalation; Whole-Body; dose end: 12 month; group: systemic; systemic / in life observation / body weight / body weight gain + systemic / in life observation / clinical signs / dental fluorosis + …
rat [8] = details: Subchronic inhalation toxicity, fischer, Whole-Body, dose end: 14 day, group: systemic
mouse [9] = details: Subchronic inhalation toxicity, cd1, Whole-Body, dose end: 13 week, group: systemic
rabbit [10] = details: Subchronic inhalation toxicity, new zealand white, Whole-Body, dose end: 13 week, group: systemic
rat [11] = details: Multigenerational reproductive toxicity study, sprague dawley, Inhalation, Whole-Body, dose end: 2 generation; remark: listed apart in the source
rat [12] = details: Combined chronic toxicity/carcinogenicity, fischer, Inhalation, Whole-Body, dose end: 104 week, group: systemic
dog [13] = details: Subchronic inhalation toxicity, beagle, Whole-Body, dose end: 13 week, group: systemic, systemic / in life observation / body weight / body weight + systemic / in life observation / body weight / body weight gain + systemic / …
rat [14] = details: Subchronic oral toxicity in rodents, fischer, Inhalation, Whole-Body, dose end: 90 day, group: systemic
rat [15] = details: Multigenerational reproductive toxicity study, other, Oral, Feed, dose end: 2 generation
dog [16] = details: Chronic toxicity, beagle, Oral, Capsule, dose end: 52 week, group: systemic
mouse [17] = details: Carcinogenicity; cd1; Oral; Feed; dose end: 78 week; group: systemic; systemic / in life observation / clinical signs / alopecia + systemic / in life observation / mortality / mortality + systemic / pathology …
rat [18] = details: Subchronic oral toxicity in rodents, fischer, Feed, dose end: 13 week, group: systemic
[19] = systemic / organ weight / heart / absolute + systemic / organ weight / heart / relative to body weight + systemic / clinical chemistry / …
[20] = group: developmental, developmental / developmental malformation / bone / delayed ossification + developmental / developmental malformation / bone / short …
[21] = group: maternal, systemic / in life observation / body weight / body weight loss + systemic / in life observation / clinical signs / inappetence + systemic…
[22] = group: developmental, developmental / developmental malformation / bone / delayed ossification + developmental / developmental malformation / bone / unossified + …
[23] = group: maternal, systemic / in life observation / body weight / body weight gain + systemic / in life observation / food consumption / food consumption
[24] = group: offspring, systemic / in life observation / body weight / offspring (pup) weight
[25] = group: parental, systemic / pathology microscopic / lung / alveolar macrophages + systemic / in life observation / body weight / body weight + systemic / in …
[26] = group: parental, systemic / pathology microscopic / lung / alveolar macrophages + systemic / pathology gross / lung / foci
[27] = systemic / pathology microscopic / kidney / hyperplasia + systemic / pathology microscopic / kidney / basophilia
[28] = systemic / pathology microscopic / kidney / hyperplasia + systemic / pathology microscopic / kidney / basophilia + systemic / in life …
[29] = systemic / in life observation / body weight / body weight + systemic / in life observation / body weight / body weight gain + systemic / …
[30] = systemic / pathology microscopic / nose / inflammation + systemic / clinical chemistry / flouride / fluoride
[31] = group: parental, systemic / pathology gross / lung / foci + systemic / pathology microscopic / lung / alveolar macrophages
[32] = group: parental, systemic / pathology gross / lung / foci + systemic / pathology microscopic / lung / alveolar macrophages + systemic / in life observation…
[33] = systemic / in life observation / clinical signs / dental fluorosis
[34] = systemic / in life observation / clinical signs / dental fluorosis + systemic / clinical chemistry / albumin / albumin + systemic / clinical…
[35] = systemic / organ weight / brain / absolute + systemic / in life observation / clinical signs / tooth-mottling + systemic / pathology …
[36] = systemic / pathology microscopic / nose / inflammation
[37] = group: reproductive, reproductive / offspring survival early / dead fetuses / dead fetuses
[38] = systemic / pathology microscopic / parathyroid gland / cyst + systemic / pathology microscopic / pituitary gland / cyst
[39] = systemic / urinalysis / ph / ph

Structure (SMILES): CCCCOC(=O)[C@@H](C)Oc1ccc(Oc2ccc(C(F)(F)F)cn2)cc1 [Fluazifop-P-butyl]
- LEL (rat [1]; [19]): 0.5 mg/kg/day
- NEL (rat [1]; [19]): < 0.5 mg/kg/day
- LOAEL (rat [1]; systemic / organ weight / spleen / absolute + systemic / organ weight / spleen / relative to body weight + systemic / hematology / …): 5 mg/kg/day
- NOAEL (rat [1]; systemic / organ weight / spleen / absolute + systemic / organ weight / spleen / relative to body weight + systemic / organ weight / brain…): 0.5 mg/kg/day
- LEL (rabbit [2]; [20]): 50 mg/kg/day
- LOAEL (rabbit [2]; [20]): 50 mg/kg/day
- NEL (rabbit [2]; [20]): 10 mg/kg/day
- NOAEL (rabbit [2]; [20]): 10 mg/kg/day
- LEL (rabbit [2]; [21]): 50 mg/kg/day
- LOAEL (rabbit [2]; [21]): 50 mg/kg/day
- NEL (rabbit [2]; [21]): 10 mg/kg/day
- NOAEL (rabbit [2]; [21]): 10 mg/kg/day
- LEL (rat [3]; [22]): 20 mg/kg/day
- LOAEL (rat [3]; [22]): 20 mg/kg/day
- NEL (rat [3]; [22]): 1 mg/kg/day
- NOAEL (rat [3]; [22]): 1 mg/kg/day
- LOAEL (rat [3]; group: maternal, systemic / in life observation / body weight / body weight gain): 300 mg/kg/day
- LEL (rat [3]; [23]): 300 mg/kg/day
- NEL (rat [3]; [23]): 20 mg/kg/day
- NOAEL (rat [3]; [23]): 20 mg/kg/day

Structure (SMILES): O=S(=O)(F)F [Sulfuryl fluoride]
- LEL (rabbit [4]): 90 mg/kg/day
- LOAEL (rabbit [4]): 90 mg/kg/day
- NEL (rabbit [4]): 30 mg/kg/day
- NOAEL (rabbit [4]): 30 mg/kg/day
- LEL (mouse [5]): 79.3 mg/kg/day
- LOAEL (mouse [5]): 79.3 mg/kg/day
- NEL (mouse [5]): 19.8 mg/kg/day
- NOAEL (mouse [5]): 19.8 mg/kg/day
- LEL (rat [6]; [24]): 108 mg/kg/day
- LOAEL (rat [6]; [24]): 108 mg/kg/day
- NEL (rat [6]; [24]): 14 mg/kg/day
- NOAEL (rat [6]; [24]): 14 mg/kg/day
- NEL (rat [6]; [25]): 3.6 mg/kg/day
- NOAEL (rat [6]; [25]): 3.6 mg/kg/day
- LEL (rat [6]; [26]): 14 mg/kg/day
- LOAEL (rat [6]; [26]): 14 mg/kg/day
- LEL (dog [7]): 80 ppm
- LOAEL (dog [7]): 80 ppm
- NEL (dog [7]): 20 ppm
- NOAEL (dog [7]): 20 ppm
- LEL (rat [8]; [27]): 249 mg/kg/day
- LOAEL (rat [8]; [27]): 249 mg/kg/day
- NEL (rat [8]; [28]): 83 mg/kg/day
- NOAEL (rat [8]; [28]): 83 mg/kg/day
- LEL (mouse [9]; systemic / clinical chemistry / flouride / fluoride): 30 ppm
- LOAEL (mouse [9]; [29]): 100 ppm
- NEL (mouse [9]; [29]): 10 ppm
- NOAEL (mouse [9]; [29]): 30 ppm
- LOAEL (rabbit [10]; [29]): 100 ppm
- NOAEL (rabbit [10]; [29]): 29.8 ppm
- LEL (rabbit [10]; [30]): 29.8 ppm
- NEL (rabbit [10]; [30]): < 29.8 ppm
- LEL (rat [11]; [24]): 108 mg/kg/day
- LOAEL (rat [11]; [24]): 108 mg/kg/day
- NEL (rat [11]; [24]): 14 mg/kg/day
- NOAEL (rat [11]; [24]): 14 mg/kg/day
- LEL (rat [11]; [31]): 14 mg/kg/day
- LOAEL (rat [11]; [31]): 14 mg/kg/day
- NEL (rat [11]; [32]): 3.6 mg/kg/day
- NOAEL (rat [11]; [32]): 3.6 mg/kg/day
- LEL (rat [12]; [33]): 20 ppm
- LOAEL (rat [12]; [33]): 20 ppm
- NEL (rat [12]; [34]): 5 ppm
- NOAEL (rat [12]; [34]): 5 ppm
- LEL (dog [13]): 200 ppm
- LOAEL (dog [13]): 200 ppm
- NEL (dog [13]): 100 ppm
- NOAEL (dog [13]): 100 ppm
- LOAEL (rat [14]; [35]): 5 mg/kg/day
- NOAEL (rat [14]; [35]): 1.49 mg/kg/day
- LEL (rat [14]; [36]): 1.49 mg/kg/day
- NEL (rat [14]; [36]): < 1.49 mg/kg/day

Structure (SMILES): Cc1ccc(-c2c(Cl)nc(C#N)n2S(=O)(=O)N(C)C)cc1 [Cyazofamid]
- LEL (rat [15]; [24]): 1000 mg/kg/day
- LOAEL (rat [15]; [24]): > 1000 mg/kg/day
- NEL (rat [15]; [24]): 100 mg/kg/day
- NOAEL (rat [15]; [24]): ≥ 1000 mg/kg/day
- LEL (rat [15]; [37]): 1000 mg/kg/day
- LOAEL (rat [15]; [37]): > 1000 mg/kg/day
- NEL (rat [15]; [37]): 100 mg/kg/day
- NOAEL (rat [15]; [37]): ≥ 1000 mg/kg/day
- LOAEL (dog [16]; [38]): 1000 mg/kg/day
- NEL (dog [16]; [38]): 40 mg/kg/day
- NOAEL (dog [16]; [38]): 200 mg/kg/day
- LEL (dog [16]; systemic / pathology microscopic / pituitary gland / cyst): 200 mg/kg/day
- LEL (mouse [17]): 985 mg/kg/day
- LOAEL (mouse [17]): 985 mg/kg/day
- NEL (mouse [17]): 94.8 mg/kg/day
- NOAEL (mouse [17]): 94.8 mg/kg/day
- LOAEL (rat [18]; systemic / pathology microscopic / kidney / basophilia + systemic / urinalysis / protein / protein): 294 mg/kg/day
- NOAEL (rat [18]; systemic / pathology microscopic / kidney / basophilia + systemic / urinalysis / protein / protein + systemic / urinalysis / ph / ph + …): 29.5 mg/kg/day
- LEL (rat [18]; [39]): 0.6 mg/kg/day
- NEL (rat [18]; [39]): < 0.6 mg/kg/day

Reference: EPA's ToxRefDB 2
